Measured values: patent US6897209B2, “Labelled factor XIIIa substrates” (GE Healthcare Limited, priority 1997, dated 2005)
Values belong to the molecule of their own block, whether it stands above or below them.

Experiments:
[1] = Normal rat biodistribution; type: in vivo; details: i.v., male Wistar rats, Mean±SD n=3
Procedure: The resolution of a clot image is dependant on the combination of rate of incorporation of the radiopharmaceutical and its blood/tissues clearance rate. For this reason the biodistribution of several compounds has been determined in rats. Male Wistar (100-150 g) rats were injected i.v. with 0.1-0.2 ml of radiolabelled tracer solution (8 MBq/ml) and dissected at different times post-injection. The % ID in each of the selected tissues was measured. Some animals were kept in metabolism cages to be able to determine the % ID excreted in urine and faeces. The dissection times used for the majority of the agents was 2, 15, 30, 60, 240 min. Data are shown as % ID, Mean±SD, (n=3).

Factor XIIIa = biological target: T1, Factor XIIIa (Homo sapiens, UniProt P00488); assay: Factor XIIIa dependency of incorporation (dimethylcasein uptake, normal vs Factor XIII deficient plasma); type: biochemical; details: 1 KBq/ml, 60 minutes; uptake in normal plasma minus Factor XIII deficient plasma
T1 construct: Factor XIII is transformed into its active form Factor XIIIa by thrombin in the presence of calcium ions; from tissue; host or cells: human plasma
T1 sequence (P00488 39-732 limits assumed): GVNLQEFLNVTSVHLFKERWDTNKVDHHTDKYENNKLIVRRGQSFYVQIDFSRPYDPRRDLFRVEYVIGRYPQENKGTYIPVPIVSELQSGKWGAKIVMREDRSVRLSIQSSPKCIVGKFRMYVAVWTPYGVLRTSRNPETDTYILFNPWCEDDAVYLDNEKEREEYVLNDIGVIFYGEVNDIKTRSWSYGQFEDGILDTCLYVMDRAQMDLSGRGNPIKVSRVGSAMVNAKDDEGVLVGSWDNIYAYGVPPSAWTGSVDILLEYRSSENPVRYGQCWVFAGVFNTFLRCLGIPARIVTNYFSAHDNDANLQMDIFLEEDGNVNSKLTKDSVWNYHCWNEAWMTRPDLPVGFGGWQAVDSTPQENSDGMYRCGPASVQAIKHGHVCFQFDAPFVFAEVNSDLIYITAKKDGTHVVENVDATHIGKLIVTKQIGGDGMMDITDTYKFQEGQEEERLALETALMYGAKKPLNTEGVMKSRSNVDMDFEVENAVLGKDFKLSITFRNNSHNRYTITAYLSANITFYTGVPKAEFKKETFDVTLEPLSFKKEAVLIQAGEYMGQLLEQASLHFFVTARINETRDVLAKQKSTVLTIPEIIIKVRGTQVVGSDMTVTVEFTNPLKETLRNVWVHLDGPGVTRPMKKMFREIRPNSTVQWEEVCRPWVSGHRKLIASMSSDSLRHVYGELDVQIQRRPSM
Procedure: The assay was changed by replacing the mercaptoethanol with aprotinin at a final concentration of 2 μg/ml, and dimethylcasein (DMC) was used instead of casein.

[2] = tested on: clots induced in rat inferior vena cava; assay: Incorporation into clots induced in a rat model (rat inferior vena cava model); type: in vivo; details: rat IVC model; for Clot/Blood / Clot/Heart / Clot/Liver / Clot/Lung: 60 min; for % ID/g (clot uptake) / Relative conc (cpm/g of clot by dose/g animal): compound injected 5 min post-induction, clot removed after 60 min
Procedure: The rats (Male Wistar, 250-350 g) were anaesthetised with 15% urethane. After laparotomy, the vena cava was isolated and freed of surrounding fat tissue. […] The average weight of the clots formed in this model was around 27 mg, n=32, (5-50 mg range). The so compounds were injected 5 min post-induction. After 60 min the animals were sacrificed and the clot removed, weighed and counted. Other tissues e.g. blood, lung, heart, were also dissected and counted. The uptake of tracer into the clot was determined as the relative concentration (cpm/g of clot by dose/g animal ) and clot to background tissue.

human plasma clots [3] = assay: Incorporation into human plasma clots (in vitro plasma clot assay); type: biochemical; details: control vials without thrombin and calcium chloride, 60 minutes
Procedure: (§1) Incorporation of radiolabelled substrates into fibrin was investigated by induction of an in vitro human plasma clot in the following manner. To a siliconised 5 ml glass vial was added, (a) 800 μl of Tris(hydroxymethyl)aminomethane buffered saline pH 7.5 containing calcium chloride (50 mM Tris, 150 mM sodium chloride, 4 mM calcium chloride.), (b) 40 μl of physiological salt solution containing 100 units of thrombin per ml, (c) 400 μl of human plasma containing the radiolabelled substrate at a concentration of typically 10 kBq/ml. To aid induction of clot a roughened glass rod was added to the reaction vial. Control vials were prepared similarly but with the omission of thrombin and calcium chloride.
(§2) The proportion of total radioactivity was calculated by counting in suitable detection apparatus.
(§3) The fraction of radioactivity retained on the filter, after subtraction of the non-specific binding determined from the control, is a measure of incorporation into the filtered clots.

human plasma clots [4] = biological target: T2, human plasma clots (Homo sapiens, UniProt P00488); assay: as above; type: biochemical; details: for % specific uptake*: % retained with thrombin − % retained no thrombin; for % retained in plasma clot assay (with thrombin): human plasma with thrombin and calcium chloride, 60 minutes, ca. 20° C.
T2 construct: Factor XIII is transformed into its active form Factor XIIIa by thrombin in the presence of calcium ions; from tissue; host or cells: human plasma, clotted in vitro with thrombin and calcium chloride
T2 sequence (P00488 39-732): T1 sequence (P00488 39-732 limits assumed)
Procedure: as §1, §2, §3

SMILES: CC(=NO)C(C)(C)NCC(C)(CNC(=O)c1ccc(S(=O)(=O)NCCCCCN)cc1)CNC(C)(C)C(C)=NO (centres unmarked) [Compound 3, 3,3,6,9,9-pentamethyl-6-(4-(N-(5-aminopentyl)amidosulphonyl)benzamidomethyl)-4,8-diazaundecane-2,10-dione dioxime]
- % ID Blood ([1]; 2 min post-injection): 19.29 ± 1.7 % ID
- % ID GI Tract ([1]; 2 min post-injection): 10.1 ± 1.2 % ID
- % ID Heart ([1]; 2 min post-injection): 0.51 + 0.08 % ID
- % ID Kidney ([1]; 2 min post-injection): 5.55 + 1 % ID
- % ID Liver ([1]; 2 min post-injection): 19.34 ± 0.8 % ID
- % ID Lung ([1]; 2 min post-injection): 1.43 ± 0.16 % ID
- % ID Muscle ([1]; 2 min post-injection): 23.6 ± 0.9 % ID
- % ID Urine ([1]; 2 min post-injection): 0.06 ± 0.02 % ID
- % ID Blood ([1]; 15 min post-injection): 1.45 ± 0.38 % ID
- % ID GI Tract ([1]; 15 min post-injection): 70 + 3.4 % ID
- % ID Kidney ([1]; 15 min post-injection): 2.1 ± 0.8 % ID
- % ID Liver ([1]; 15 min post-injection): 7.79 ± 1.16 % ID
- % ID Lung ([1]; 15 min post-injection): 0.23 ± 0.12 % ID
- % ID Muscle ([1]; 15 min post-injection): 4.87 ± 0.6 % ID
- % ID Urine ([1]; 15 min post-injection): 5.01 ± 2.53 % ID
- % ID Blood ([1]; 30 min post-injection): 0.59 ± 0.07 % ID
- % ID GI Tract ([1]; 30 min post-injection): 76.5 ± 5.6 % ID
- % ID Kidney ([1]; 30 min post-injection): 2.09 ± 1.87 % ID
- % ID Liver ([1]; 30 min post-injection): 1.95 ± 0.35 % ID
- % ID Lung ([1]; 30 min post-injection): 0.03 + 0.04 % ID
- % ID Muscle ([1]; 30 min post-injection): 1.53 ± 0.71 % ID
- % ID Urine ([1]; 30 min post-injection): 14.42 ± 3.78 % ID
- % ID Blood ([1]; 60 min post-injection): 0.31 ± 0.02 % ID
- % ID GI Tract ([1]; 60 min post-injection): 79.9 ± 2.9 % ID
- % ID Kidney ([1]; 60 min post-injection): 0.57 ± 0.12 % ID
- % ID Liver ([1]; 60 min post-injection): 1.54 ± 0.29 % ID
- % ID Lung ([1]; 60 min post-injection): 0.07 ± 0.02 % ID
- % ID Muscle ([1]; 60 min post-injection): 1.14 ± 0.48 % ID
- % ID Urine ([1]; 60 min post-injection): 14.66 ± 2.83 % ID
- % ID Blood ([1]; 240 min post-injection): 0.11 ± 0.07 % ID
- % ID GI Tract ([1]; 240 min post-injection): 83.5 ± 2.2 % ID
- % ID Kidney ([1]; 240 min post-injection): 0.45 ± 0.04 % ID
- % ID Liver ([1]; 240 min post-injection): 1.35 ± 0.06 % ID
- % ID Lung ([1]; 240 min post-injection): 0.14 + 0.24 % ID
- % ID Muscle ([1]; 240 min post-injection): 0.8 ± 0.17 % ID
- % ID Urine ([1]; 240 min post-injection): 12.31 ± 1.93 % ID
- % specific DMC casein uptake (Factor XIIIa): 40%
- Clot/Blood [2]: 2
- Clot/Heart [2]: 3.4
- Clot/Liver [2]: 0.23
- Clot/Lung [2]: 2.2
- % ID/g (clot uptake) [2]: 0.10 ± 0.02 % ID/g
- Relative conc (cpm/g of clot by dose/g animal) [2]: 0.37 ± 0.1
- % retained in plasma clot assay (no thrombin) (human plasma clots [3]): 3.0%
- % specific uptake* (human plasma clots [4]): 19%
- % retained in plasma clot assay (with thrombin) (human plasma clots [4]): 22%

- % ID Blood ([1]; 2 min post-injection): 18.5 ± 1.06 % ID
- % ID GI Tract ([1]; 2 min post-injection): 6.31 ± 0.6 % ID
- % ID Heart ([1]; 2 min post-injection): 0.34 + 0.17 % ID
- % ID Kidney ([1]; 2 min post-injection): 12.3 ± 0.53 % ID
- % ID Liver ([1]; 2 min post-injection): 4.3 ± 0.06 % ID
- % ID Lung ([1]; 2 min post-injection): 1.69 ± 0.1 % ID
- % ID Muscle ([1]; 2 min post-injection): 25.9 ± 1.8 % ID
- % ID Spleen ([1]; 2 min post-injection): 0.33 ± 0.07 % ID
- % ID Urine ([1]; 2 min post-injection): 1.38 ± 1.34 % ID
- % ID Blood ([1]; 15 min post-injection): 9.46 ± 0.24 % ID
- % ID GI Tract ([1]; 15 min post-injection): 9.6 ± 0.9 % ID
- % ID Heart ([1]; 15 min post-injection): 0.27 + 0.06 % ID
- % ID Kidney ([1]; 15 min post-injection): 7.32 ± 0.76 % ID
- % ID Liver ([1]; 15 min post-injection): 4.25 ± 0.85 % ID
- % ID Lung ([1]; 15 min post-injection): 0.9 ± 0.16 % ID
- % ID Muscle ([1]; 15 min post-injection): 15.6 ± 1.05 % ID
- % ID Spleen ([1]; 15 min post-injection): 0.17 ± 0.04 % ID
- % ID Urine ([1]; 15 min post-injection): 30.1 ± 1.28 % ID
- % ID Blood ([1]; 30 min post-injection): 5.7 ± 0.42 % ID
- % ID GI Tract ([1]; 30 min post-injection): 13.07 ± 1.4 % ID
- % ID Heart ([1]; 30 min post-injection): 0.17 + 0.04 % ID
- % ID Kidney ([1]; 30 min post-injection): 7.1 ± 1.89 % ID
- % ID Liver ([1]; 30 min post-injection): 2.94 ± 0.22 % ID
- % ID Lung ([1]; 30 min post-injection): 0.54 ± 0.07 % ID
- % ID Muscle ([1]; 30 min post-injection): 8.51 ± 0.93 % ID
- % ID Spleen ([1]; 30 min post-injection): 0.11 ± 0.03 % ID
- % ID Urine ([1]; 30 min post-injection): 46.9 ± 3.71 % ID
- % ID Blood ([1]; 60 min post-injection): 2.23 ± 0.15 % ID
- % ID GI Tract ([1]; 60 min post-injection): 17.7 ± 3.8 % ID
- % ID Heart ([1]; 60 min post-injection): 0.07 + 0.02 % ID
- % ID Kidney ([1]; 60 min post-injection): 3.77 ± 0.73 % ID
- % ID Liver ([1]; 60 min post-injection): 1.79 ± 0.45 % ID
- % ID Lung ([1]; 60 min post-injection): 0.28 ± 0.02 % ID
- % ID Muscle ([1]; 60 min post-injection): 4.31 ± 0.95 % ID
- % ID Spleen ([1]; 60 min post-injection): 0.07 ± 0.02 % ID
- % ID Urine ([1]; 60 min post-injection): 65.8 ± 3.4 % ID
- % ID Blood ([1]; 240 min post-injection): 0.09 ± 0.02 % ID
- % ID GI Tract ([1]; 240 min post-injection): 25.4 ± 5.2 % ID
- % ID Heart ([1]; 240 min post-injection): 0.01 % ID
- % ID Kidney ([1]; 240 min post-injection): 5.1 ± 0.99 % ID
- % ID Liver ([1]; 240 min post-injection): 1 + 0.17 % ID
- % ID Lung ([1]; 240 min post-injection): 0.1 ± 0.01 % ID
- % ID Muscle ([1]; 240 min post-injection): 0.81 ± 0.26 % ID
- % ID Spleen ([1]; 240 min post-injection): 0.03 ± 0.02 % ID
- % ID Urine ([1]; 240 min post-injection): 66.08 ± 4.98 % ID
- % specific DMC casein uptake (Factor XIIIa): 22.5%
- % specific uptake* (human plasma clots [4]): 14.7%
- % retained in plasma clot assay (with thrombin) (human plasma clots [4]): 17%
SMILES: CC(=NO)C(C)(C)NCCN(CCNC(=O)C1CCC(CNC(=O)c2ccc(S(=O)(=O)NCCCCCN)cc2)CC1)CCNC(C)(C)C(C)=NO (centres unmarked) [Compound 17]
- Clot/Blood [2]: 1.15
- Clot/Heart [2]: 2.7
- Clot/Liver [2]: 1.26
- Clot/Lung [2]: 1.54
- % ID/g (clot uptake) [2]: 0.32 ± 0.04 % ID/g
- Relative conc (cpm/g of clot by dose/g animal) [2]: 1.1 ± 0.17
- % retained in plasma clot assay (no thrombin) (human plasma clots [3]): 2.3%
